Where “and” joins values, the source holds several entries; their conditions need not be identical. Identical values can stand only once.
Columns and labels:
[1] = system: Pezicula malicorticis 160622 (DSM 62715); test: Apple test (wound inoculation), Pezicula malicorticis 160622; type: in vivo; conditions: apples Elstar Fuchshof, 20° C., 16 days; Aureobasidium overall 1×10^7 cells/ml; fludioxonil 0.125 g/l, cyprodinil 0.1875 g/l
Method: The effect of the Aureobasidium pullulans strains AP 241 (DSM 32467), AP 268 (DSM 32468), DSM 14940 and DSM 14941 (individually or in combination), together with the chemical fungicides cyprodinil and fludioxonil (individually or in combination), against the fungal plant pathogens Botrytis and Neofabreaea was determined in an apple test. 12 untreated apples of the same cultivar, having a uniform degree of maturity and size, were used for each treatment. Prior to the test, the apples were surface-sterilized for three minutes in 70% ethanol and dried in a clean bench. Four wounds, having a wound diameter of 5 mm, were made at equal distances in each apple in the equatorial plane between the calyx and the stem using a sterile pipette tip. Immediately after the creation of the four artificial wounds, 10 μl of different test solutions (preparations) was applied to each apple. Thereafter, the apples were stored. An area of decay formed around the wounds, the diameter of the area representing a measure of the spread of the infection with the pathogen. For the evaluation, the diameters of the punctures of 0.5 cm each were deducted from the diameter of the decay area.
The 4 test solutions that were each placed in one of the 4 wounds of each apple were: • 1. Pathogen (negative control) • 2. Pathogen and Aureobasidium pullulans (individually or in combination) • 3. Pathogen and chemical fungicide (individually or in combination) • 4. Pathogen and Aureobasidium pullulans (individually or in combination) and chemical fungicide (individually or in combination)
(§1) The effectiveness of the inhibition of the pathogen was calculated for test solutions 2 to 4 from the diameters of the areas of decay, which were measured at the end of the storage period. […]
(§2) According to the Colby formula (S. R. Colby “Calculating synergistic and antagonistic responses of herbicide combinations,” Weeds 15, pages 20 to 22, 1967), expected values (E) of the effect of the combination of Aureobasidium and the chemical fungicide (test solution 4) were calculated from the effectiveness (WG) figures of the individual components in test solutions 2 and 3 according to the following formula: […]
If the measured effectiveness of the combination of the Aureobasidium pullulans strains and the chemical fungicide (test solution 4) is greater than the calculated expected value (E), this is referred to as a synergistic effect (the individual components potentiate each other in an over-additive effect). The synergism factor is a measure of the synergistic effect and was calculated as the quotient from the effectiveness of the combination of the substances or components (test solution 4) and the calculated expected value (E). […]

[2] = system: Botrytis cinerea Bc97 (DSM 32469); test: Apple test (wound inoculation), Botrytis cinerea Bc97; type: in vivo; conditions: apples Jonagold Honsel, 20° C., 6 days; Aureobasidium 5×10^6 cells/ml total; fludioxonil 0.125 g/l, cyprodinil 0.1875 g/l
Method: The effect of the Aureobasidium pullulans strains AP 241 (DSM 32467), AP 268 (DSM 32468), DSM 14940 and DSM 14941 (individually or in combination), together with the chemical fungicides cyprodinil and fludioxonil (individually or in combination), against the fungal plant pathogens Botrytis and Neofabreaea was determined in an apple test. 12 untreated apples of the same cultivar, having a uniform degree of maturity and size, were used for each treatment. Prior to the test, the apples were surface-sterilized for three minutes in 70% ethanol and dried in a clean bench. Four wounds, having a wound diameter of 5 mm, were made at equal distances in each apple in the equatorial plane between the calyx and the stem using a sterile pipette tip. […]
as §1, §2

Structure (SMILES)	Effectiveness (decrease in diameter of decay area vs. negative control) [1]	Mean diameter of decay areas [1]	Mean diameter of decay areas [2]
N#Cc1c[nH]cc1-c1cccc2c1OC(F)(F)O2 [fludioxonil]	−3.8%	1.91 cm	–
Cc1cc(C2CC2)nc(Nc2ccccc2)n1 [cyprodinil]	17.0%	1.61 cm	2.80 cm and 3.14 cm and 2.21 cm and 2.52 cm and 3.63 cm and 3.51 cm and 3.38 cm

From patent publication US20200275665A1, “PREPARATION COMPRISING AT LEAST ONE CHEMICAL FUNGICIDE AND A MIXTURE COMPRISING AUREOBASIDIUM PULLULANS STRAINS” (Erber Aktiengesellschaft, priority 2017, published 2020)
